Data: PubChem BioAssay AID1963984 (Molecular Pharmacology Branch, DTP, NCI, 2024)

System: 233499-124-R-J3-PDC spheroids with HUVEC/MSC, viability
Assay: Anticancer human tumor 233499-124-R-J3-PDC patient-derived colon adenocarcinoma cell line growth inhibition [PI3K]
Conditions: for viability, T/C: stronger effect = lower value; active = viability on the fitted dose curve at most 10% of control; inactive = the rest
Outline: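 Agents were dosed from a top concentration near clinical Cmax (otherwise 10 microM) in half-log decrements, alone or combined with PI3K inhibitors. The spheroids contain tumor cells plus endothelial (HUVEC) and MSC stroma; viability is measured.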

[1] = curve of first compound, second compound 0.0316 µM
[2] = curve of first compound, second compound 0.1 µM
[3] = curve of first compound, second compound 0.316 µM
[4] = curve of first compound, second compound 1 µM
[5] = second compound 0.0316 µM, first compound 0.0316 µM
[6] = second compound 0.0316 µM, first compound 0.1 µM
[7] = second compound 0.0316 µM, first compound 0.316 µM
[8] = second compound 0.0316 µM, first compound 1 µM
[9] = second compound 0.0316 µM, first compound 3.16 µM
[10] = second compound 0.0316 µM, first compound 10 µM
[11] = second compound 0.1 µM, first compound 0.0316 µM
[12] = second compound 0.1 µM, first compound 0.1 µM
[13] = second compound 0.1 µM, first compound 0.316 µM
[14] = second compound 0.1 µM, first compound 1 µM
[15] = second compound 0.1 µM, first compound 3.16 µM
[16] = second compound 0.1 µM, first compound 10 µM
[17] = second compound 0.316 µM, first compound 0.0316 µM
[18] = second compound 0.316 µM, first compound 0.1 µM
[19] = second compound 0.316 µM, first compound 0.316 µM
[20] = second compound 0.316 µM, first compound 1 µM
[21] = second compound 0.316 µM, first compound 3.16 µM
[22] = second compound 0.316 µM, first compound 10 µM
[23] = second compound 1 µM, first compound 0.0316 µM
[24] = second compound 1 µM, first compound 0.1 µM
[25] = second compound 1 µM, first compound 0.316 µM
[26] = second compound 1 µM, first compound 1 µM
[27] = second compound 1 µM, first compound 3.16 µM
[28] = second compound 1 µM, first compound 10 µM
[29] = curve of first compound, second compound 3.16 µM
[30] = curve of first compound, second compound 10 µM
[31] = second compound 3.16 µM, first compound 0.0316 µM
[32] = second compound 3.16 µM, first compound 0.1 µM
[33] = second compound 10 µM, first compound 0.0316 µM
[34] = second compound 10 µM, first compound 0.1 µM
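Note: spheroids exposed to agents for seven days before readout.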
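Throughout, for viability, T/C: percent viability relative to DMSO vehicle control taken as 100%.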

CC(C)NCC(C(=O)N1CCN(c2ncnc3c2C(C)CC3O)CC1)c1ccc(Cl)cc1 (stereo not drawn) + CC(Nc1ccc2c(c1)OCCn1cc(N3C(=O)OCC3C(F)F)nc1-2)C(N)=O
inactive: viability, T/C (second compound 0.00316 µM, first compound 0.0316 µM) 53.2% | viability, T/C (second compound 0.00316 µM, first compound 0.1 µM) 98.8% | viability, T/C (second compound 0.00316 µM, first compound 0.316 µM) 74.7% | viability, T/C (second compound 0.00316 µM, first compound 1 µM) 96% | viability, T/C (second compound 0.00316 µM, first compound 3.16 µM) 94.2% | viability, T/C (second compound 0.00316 µM, first compound 10 µM) 50.3% | viability, T/C (second compound 0.01 µM, first compound 0.0316 µM) 96.7% | viability, T/C (second compound 0.01 µM, first compound 0.1 µM) 102% | viability, T/C (second compound 0.01 µM, first compound 0.316 µM) 94.8% | viability, T/C (second compound 0.01 µM, first compound 1 µM) 96.2% | viability, T/C (second compound 0.01 µM, first compound 3.16 µM) 86.1% | viability, T/C (second compound 0.01 µM, first compound 10 µM) 71.1% | viability, T/C [5] 89% | viability, T/C [6] 84.9% | viability, T/C [7] 89% | viability, T/C [8] 86.1% | viability, T/C [9] 81.2% | viability, T/C [10] 76.8% | viability, T/C [11] 87.7% | viability, T/C [12] 86.2% | viability, T/C [13] 77.3% | viability, T/C [14] 51.9% | viability, T/C [15] 80.8% | viability, T/C [16] 58.6% | viability, T/C [17] 72.2% | viability, T/C [18] 83.2% | viability, T/C [19] 69.7% | viability, T/C [20] 67.5% | viability, T/C [21] 59.9% | viability, T/C [22] 79.5% | viability, T/C [23] 49.2% | viability, T/C [24] 40.3% | viability, T/C [25] 65.2% | viability, T/C [26] 68.7% | viability, T/C [27] 50.9% | viability, T/C [28] 36.4%
> 10 µM: IC50 (curve of first compound, second compound 0.00316 µM) | IC50 (curve of first compound, second compound 0.01 µM) | IC50 [1] | IC50 [2] | IC50 [3]
7.25 µM: IC50 [4]

CNC(=O)c1ccc(N2C(=S)N(c3ccc(C#N)c(C(F)(F)F)c3)C(=O)C2(C)C)cc1F + Cc1nc(NC(=O)N2CCCC2C(N)=O)sc1-c1ccnc(C(C)(C)C(F)(F)F)c1
< 0.0316 µM: IC50 [30]
> 10 µM: IC50 [2] | IC50 [3] | IC50 [4]
4.62 µM: IC50 [29]
inactive: viability, T/C [5] 101% | viability, T/C [6] 107% | viability, T/C [7] 80.8% | viability, T/C [8] 100% | viability, T/C [9] 102% | viability, T/C [10] 49.1% | viability, T/C [11] 111% | viability, T/C [12] 72.8% | viability, T/C [13] 66% | viability, T/C [14] 84.1% | viability, T/C [15] 85.9% | viability, T/C [16] 73.2% | viability, T/C [17] 95.8% | viability, T/C [18] 100% | viability, T/C [19] 70.6% | viability, T/C [20] 88.3% | viability, T/C [21] 85.9% | viability, T/C [22] 56.2% | viability, T/C [23] 105% | viability, T/C [24] 70.3% | viability, T/C [25] 78.9% | viability, T/C [26] 61.5% | viability, T/C [27] 60.5% | viability, T/C [28] 51.3% | viability, T/C [31] 59.1% | viability, T/C [32] 51.1% | viability, T/C (second compound 3.16 µM, first compound 0.316 µM) 61.2% | viability, T/C (second compound 3.16 µM, first compound 1 µM) 54.5% | viability, T/C (second compound 3.16 µM, first compound 3.16 µM) 57% | viability, T/C (second compound 3.16 µM, first compound 10 µM) 37% | viability, T/C [33] 24% | viability, T/C [34] 34.6% | viability, T/C (second compound 10 µM, first compound 0.316 µM) 28.1% | viability, T/C (second compound 10 µM, first compound 1 µM) 31.8% | viability, T/C (second compound 10 µM, first compound 3.16 µM) 29.3% | viability, T/C (second compound 10 µM, first compound 10 µM) 19.6%
9.8 µM: IC50 [1]

C#Cc1c(F)ccc2cc(O)cc(-c3ncc4c(N5CC6CCC(C5)N6)nc(OCC56CCCN5CC(F)C6)nc4c3F)c12 (stereo not drawn)
inactive: viability, T/C (compound 0.0316 µM) 96% [middle of 4 runs] | viability, T/C (compound 0.1 µM) 102% [middle of 4 runs] | viability, T/C (compound 0.316 µM) 95.6% [middle of 4 runs] | viability, T/C (compound 1 µM) 99.3% [middle of 4 runs] | viability, T/C (compound 3.16 µM) 87.5% [middle of 4 runs] | viability, T/C (compound 10 µM) 84.1% [middle of 4 runs]
> 10 µM: IC50 (curve of compound)

Cn1ncnc1[C@H]1c2n[nH]c(=O)c3cc(F)cc(c23)N[C@@H]1c1ccc(F)cc1 + Cc1nc(NC(=O)N2CCCC2C(N)=O)sc1-c1ccnc(C(C)(C)C(F)(F)F)c1
< 0.000316 µM: IC50 [30]
> 0.1 µM: IC50 [1] | IC50 [2] | IC50 [3] | IC50 [4]
inactive: viability, T/C (second compound 0.0316 µM, first compound 0.000316 µM) 101% | viability, T/C (second compound 0.0316 µM, first compound 0.001 µM) 97.2% | viability, T/C (second compound 0.0316 µM, first compound 0.00316 µM) 95.9% | viability, T/C (second compound 0.0316 µM, first compound 0.01 µM) 109% | viability, T/C [5] 81.1% | viability, T/C [6] 94.8% | viability, T/C (second compound 0.1 µM, first compound 0.000316 µM) 106% | viability, T/C (second compound 0.1 µM, first compound 0.001 µM) 77.2% | viability, T/C (second compound 0.1 µM, first compound 0.00316 µM) 85.2% | viability, T/C (second compound 0.1 µM, first compound 0.01 µM) 91.3% | viability, T/C [11] 75.6% | viability, T/C [12] 90.3% | viability, T/C (second compound 0.316 µM, first compound 0.000316 µM) 81.5% | viability, T/C (second compound 0.316 µM, first compound 0.001 µM) 89.5% | viability, T/C (second compound 0.316 µM, first compound 0.00316 µM) 85.3% | viability, T/C (second compound 0.316 µM, first compound 0.01 µM) 73.8% | viability, T/C [17] 58.4% | viability, T/C [18] 54.7% | viability, T/C (second compound 1 µM, first compound 0.000316 µM) 87.2% | viability, T/C (second compound 1 µM, first compound 0.001 µM) 65% | viability, T/C (second compound 1 µM, first compound 0.00316 µM) 50.3% | viability, T/C (second compound 1 µM, first compound 0.01 µM) 57.4% | viability, T/C [23] 55.5% | viability, T/C [24] 65% | viability, T/C (second compound 3.16 µM, first compound 0.000316 µM) 52.6% | viability, T/C (second compound 3.16 µM, first compound 0.001 µM) 43.5% | viability, T/C (second compound 3.16 µM, first compound 0.00316 µM) 61.8% | viability, T/C (second compound 3.16 µM, first compound 0.01 µM) 41% | viability, T/C [31] 49.4% | viability, T/C [32] 44.7% | viability, T/C (second compound 10 µM, first compound 0.000316 µM) 28.2% | viability, T/C (second compound 10 µM, first compound 0.001 µM) 30.7% | viability, T/C (second compound 10 µM, first compound 0.00316 µM) 37.6% | viability, T/C (second compound 10 µM, first compound 0.01 µM) 29.1% | viability, T/C [33] 22.8% | viability, T/C [34] 22.5%
0.00184 µM: IC50 [29]
